Reference: paper PMC12591484 (PLOS One, 2025)

What was measured:
[1] = system: α1β3γ2L GABAA receptors, bulky mutation at β3M227; set-up: key: +: Mutant-function studies are deemed positive when bulky mutations (mostly tryptophans) at the site significantly reduce positive modulation by anesthetics; -: Negative results are indicated by “–“ symbols; details: cited from earlier work
[2] = system: α1β3γ2L GABAA receptors, bulky mutation at α1S270; set-up: key to Mutant-function result, α1+ (M2, M3) S270: +: Mutant-function studies are deemed positive when bulky mutations (mostly tryptophans) at the site significantly reduce positive modulation by anesthetics; -: Negative results are indicated by “–“ symbols; details: cited from earlier work
[3] = system: α1β3γ2L GABAA receptors, bulky mutation at γ2I242; set-up: key to Mutant-function result, γ2– (M1) I242: +: Mutant-function studies are deemed positive when bulky mutations (mostly tryptophans) at the site significantly reduce positive modulation by anesthetics; -: Negative results are indicated by “–“ symbols; details: cited from earlier work
[4] = system: α1β3γ2L GABAA receptors, bulky mutation at α1A291; set-up: method as in PMID 30696720; key: +: Mutant-function studies are deemed positive when bulky mutations (mostly tryptophans) at the site significantly reduce positive modulation by anesthetics; -: Negative results are indicated by “–“ symbols; details: cited from earlier work
[5] = system: α1β3γ2L GABAA receptors, bulky mutation at β3M286; set-up: method as in PMID 30696720; key: +: Mutant-function studies are deemed positive when bulky mutations (mostly tryptophans) at the site significantly reduce positive modulation by anesthetics; -: Negative results are indicated by “–“ symbols; details: cited from earlier work
[6] = system: α1β3γ2L GABAA receptors, bulky mutation at β3N265; set-up: method as in PMID 30696720, PMID 32247113; key: +: Mutant-function studies are deemed positive when bulky mutations (mostly tryptophans) at the site significantly reduce positive modulation by anesthetics; -: Negative results are indicated by “–“ symbols; details: cited from earlier work
[7] = system: α1β3γ2L GABAA receptors, bulky mutation at γ2S280; set-up: method as in PMID 30696720, PMID 32247113; key: +: Mutant-function studies are deemed positive when bulky mutations (mostly tryptophans) at the site significantly reduce positive modulation by anesthetics; -: Negative results are indicated by “–“ symbols; details: cited from earlier work
[8] = system: α1β3γ2L GABAA receptors, bulky mutation at β3L231; set-up: key: +: Mutant-function studies are deemed positive when bulky mutations (mostly tryptophans) at the site significantly reduce positive modulation by anesthetics; -: Negative results are indicated by “–“ symbols; details: cited from earlier work
[9] = target: T1, α1A291Cβ3γ2L GABAA receptors (Homo sapiens, UniProt P14867+P18507+P28472, A318C); assay: Drug protection from pCMBS modification (SCAMP); assay type: cell-based; details: for modification ratio with anesthetic present, single oocyte example (Fig 2): 3 mM GABA + 10 µM pCMBS for 90 s plus […] etomidate
T1 construct: expressed in transfected cells; host or cells: Xenopus oocytes injected with capped mRNA, 1α:1β:5γ
T1 sequence (P14867 28-456 A318C): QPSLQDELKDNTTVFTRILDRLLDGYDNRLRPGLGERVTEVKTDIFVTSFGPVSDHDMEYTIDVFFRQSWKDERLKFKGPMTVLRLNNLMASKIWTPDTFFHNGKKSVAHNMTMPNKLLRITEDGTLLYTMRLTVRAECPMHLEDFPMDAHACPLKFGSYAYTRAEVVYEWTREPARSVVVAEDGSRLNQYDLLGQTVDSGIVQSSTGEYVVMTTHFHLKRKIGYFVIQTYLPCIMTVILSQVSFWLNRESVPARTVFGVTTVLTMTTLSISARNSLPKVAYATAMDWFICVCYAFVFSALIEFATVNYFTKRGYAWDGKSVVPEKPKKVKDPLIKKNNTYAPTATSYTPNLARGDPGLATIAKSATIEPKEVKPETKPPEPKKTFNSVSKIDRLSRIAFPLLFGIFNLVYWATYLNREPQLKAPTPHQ
T1 sequence (P28472 26-473): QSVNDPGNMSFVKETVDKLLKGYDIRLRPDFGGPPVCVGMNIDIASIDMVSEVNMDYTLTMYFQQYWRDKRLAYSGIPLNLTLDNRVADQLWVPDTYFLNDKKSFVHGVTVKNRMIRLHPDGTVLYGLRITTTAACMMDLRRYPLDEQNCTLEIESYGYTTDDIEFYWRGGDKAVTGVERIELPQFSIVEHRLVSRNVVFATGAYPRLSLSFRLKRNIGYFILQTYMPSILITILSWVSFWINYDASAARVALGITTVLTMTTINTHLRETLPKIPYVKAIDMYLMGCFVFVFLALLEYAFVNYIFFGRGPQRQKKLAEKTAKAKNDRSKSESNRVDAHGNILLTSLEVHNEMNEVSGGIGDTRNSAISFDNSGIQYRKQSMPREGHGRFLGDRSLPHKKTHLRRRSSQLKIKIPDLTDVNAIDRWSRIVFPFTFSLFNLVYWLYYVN
T1 sequence (P18507 40-475): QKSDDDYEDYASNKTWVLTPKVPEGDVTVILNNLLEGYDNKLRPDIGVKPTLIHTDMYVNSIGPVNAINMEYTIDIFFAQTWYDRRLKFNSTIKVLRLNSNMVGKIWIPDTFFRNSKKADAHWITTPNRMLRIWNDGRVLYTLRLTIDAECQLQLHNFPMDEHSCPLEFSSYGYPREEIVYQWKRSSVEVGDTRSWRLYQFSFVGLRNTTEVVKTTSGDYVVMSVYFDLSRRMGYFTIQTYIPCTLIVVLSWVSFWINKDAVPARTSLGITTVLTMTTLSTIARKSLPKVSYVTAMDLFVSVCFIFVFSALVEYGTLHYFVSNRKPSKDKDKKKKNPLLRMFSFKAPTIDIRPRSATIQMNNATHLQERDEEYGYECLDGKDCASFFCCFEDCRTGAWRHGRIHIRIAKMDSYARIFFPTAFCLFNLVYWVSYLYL
Method: (§1) Experiments were performed in ND-96 buffer at room temperature (20–22°C). Oocytes were placed in a low-volume (30µl) flow chamber and impaled with borosilicate microelectrodes filled with 3M KCl (resistance 0.5–3 MΩ) and voltage-clamped at −50 mV (model OC-725C; Warner Instruments, Hamden, CT, USA). Superfusate solutions in ND-96 were delivered at 2 ml/min from glass syringe reservoirs via computer-controlled valves (VC-8; Warner Instruments), a micro-manifold (ALA-VM8; ALA Scientific Instruments, Farmingdale, NY, USA), and PTFE tubing. Currents were digitized at 200 Hz on a computer running ClampEx v8.0 software (Molecular Devices, San Jose, CA, USA). Digitized traces were filtered with a 10-Hz low-pass Bessel function, leak corrected and analyzed for peak amplitude off-line using Clampfit v8 software (Molecular Devices).
(§2) Drug protection from pCMBS modification was assessed under pCMBS exposure conditions that produced approximately half of the maximal modification ratio for each mutant receptor, and a least a value of 3. This approach balanced the magnitude of functional modification signals (smaller with less pCMBS exposure) against the challenge of using a reversibly bound ligand to competitively block an irreversible covalent cysteine-modifying reaction. […] Each oocyte was used in a single SCAMP experiment. […] Etomidate was used as a positive control for anesthetic protection in α1M236C and β3M286C mutants and as a negative control in α1S270C, α1A291C, β3L231C, γ2S301C, γ2I242C, and γ2L246C mutants. R-mTFD-MPAB was used as a positive control in α1S270C, α1A291C, β3L231C, and γ2LS301C mutants and as a negative control in α1M236C and β3M286C mutants. For each cysteine mutant and protective drug combination, five oocytes were studied.
(§3) Non-linear least squares fits and statistical analyses were performed in Prism 10.4.0. (GraphPad Software, San Diego, CA, USA). […] Protection (steric inhibition of pCMBS modification) was inferred when anesthetics produced significant reductions in modification ratios relative to control (no anesthetic) values. The statistical significance threshold was p < 0.05.

[10] = target: T2, α1β3L231Cγ2L GABAA receptors (Homo sapiens, UniProt P14867+P18507+P28472, L256C); assay: Drug protection from pCMBS modification (SCAMP); assay type: cell-based; set-up: key: +: SCAMP is Substituted Cysteine Modification and Protection and is positive when adding anesthetic to cysteine modifier significantly reduces persistent post-exposure effects due to covalent modification; -: Negative results are indicated by “–“ symbols; details: results of this study (*); some cells also cite [9]
T2 construct: expressed in transfected cells; host or cells: Xenopus oocytes injected with capped mRNA, 1α:1β:5γ
T2 sequence (P14867 28-456): as the sequence (P14867 28-456 A318C) above, with C291A counted along it
T2 sequence (P28472 26-473 L256C): as the sequence (P28472 26-473) above, with L231C counted along it
T2 sequence (P18507 40-475): as the sequence (P18507 40-475) above
Method: as §1, §2, §3

[11] = system: α1β3γ2L GABAA receptors, bulky mutation at γ2L246; set-up: key: +: Mutant-function studies are deemed positive when bulky mutations (mostly tryptophans) at the site significantly reduce positive modulation by anesthetics; -: Negative results are indicated by “–“ symbols; details: cited from earlier work
[12] = target: T3, α1β3γ2I242C GABAA receptors (Homo sapiens, UniProt P14867+P18507+P28472, I281C); assay: Drug protection from pCMBS modification (SCAMP); assay type: cell-based; set-up: key to SCAMP result, γ2– (M1) I242: +: Mutant-function studies are deemed positive when bulky mutations (mostly tryptophans) at the site significantly reduce positive modulation by anesthetics; -: Negative results are indicated by “–“ symbols; details: for SCAMP result, γ2– (M1) I242: results of this study, etomidate cell also cites [9]
T3 construct: expressed in transfected cells; host or cells: Xenopus oocytes injected with capped mRNAs mixed 1α:1β:5γ
T3 sequence (P14867 28-456): as the sequence (P14867 28-456 A318C) above, with C291A counted along it
T3 sequence (P28472 26-473): as the sequence (P28472 26-473) above
T3 sequence (P18507 40-475 I281C): as the sequence (P18507 40-475) above, with I242C counted along it
Method: as §1, §2
as §3, with “The statistical significance threshold was p < 0.05.” left out

[13] = α1A291Cβ3γ2L, 8 µM R-mTFD-MPAB or 10 µM pTFD-di-iPr-BnOH

SMILES | Mutant-function result, β3– (M1) M227 [1] | Mutant-function result, α1+ (M2, M3) S270 [2] | Mutant-function result, γ2– (M1) I242 [3] | Mutant-function result, α1+ (M2, M3) A291 [4] | Mutant-function result, β3+ (M2, M3) M286 [5] | Mutant-function result, β3+ (M2, M3) N265 [6] | Mutant-function result, γ2+ (M2, M3) S280 [7] | Mutant-function result, β3– (M1) L231 [8] | protection from pCMBS modification (significant reduction of modification ratio vs control, p < 0.05) ([9]; α1A291C (α+), pCMBS 10 µM x 90 s, […] etomidate, 8 µM R-mTFD-MPAB or 10 µM pTFD-di-iPr-BnOH, n = 5) | modification ratio with anesthetic present, single oocyte example (Fig 2) [9, 13] | modification ratio lower than control ([9]; α1A291Cβ3γ2L, single oocyte examples of Fig 2, control modification ratio 4.0) | SCAMP result, β3– (M1) L231 [10] | Mutant-function result, γ2– (M1) L246 [11] | SCAMP result, γ2– (M1) I242 [12] | protection from pCMBS modification (significant reduction of modification ratio vs control, p < 0.05) ([12]; γ2I242C (γ–), pCMBS 100 µM x 30 s, […] etomidate or 10 µM pTFD-di-iPr-BnOH, n = 5) | effect of mutation on receptor modulation by the anesthetic ([2]; α1S270I mutation) | effect of mutation on receptor modulation by the anesthetic ([3]; γ2I242W mutation)
C=CCC1(c2cccc(C3(C(F)(F)F)N=N3)c2)C(=O)NC(=O)N(C)C1=O (stereo not shown) [R-mTFD-MPAB, R-5-allyl-1-methyl-5-(m-trifluoromethyl-diazirynylphenyl) barbituric acid] | +^[9, 15], | +^[13, 15] | -^[9, 15] | +^[13] | -^[13] | -^[13, 15] | +^[13, 15] | -^[9] | protection was inferred | 2.1 | 47% | +^[9], * | -^[9] | – | – | – | –
CCOC(=O)c1cncn1[C@H](C)c1ccccc1 [etomidate, R-etomidate] | -^[9, 15] | -^[13, 15] | -^[9, 15] | -^[13] | +^[13] | +^[13, 15] | -^[13, 15] | +^[9] | – | 3.8 | – | – | -^[9] | -^[9],6 | no protection was inferred | – | –
CC(C)c1cc(C2(C(F)(F)F)N=N2)cc(C(C)C)c1CO [pTFD-di-iPr-BnOH] | +^[15] | +^[15] | +^[15] | – | – | -^[15] | -^[15] | – | – | – | – | +* | – | -* | – | significantly reduced | significantly reduced
